Structures can show the parent of a compound that is named as a salt.
Assays:
[1] = Solubility improvement of NZ-105 by pulverizing or by formulating other polymers; assay type: physicochemical; details: pulverizing crystals
Excerpt: This entailed larger size tablets. […] This also entailed larger size tablets.

[2] = background; cited from earlier work
[3] = background; cited from earlier work; remark: listed apart in the source

Structure (SMILES)	Improvement in solubility (in words) [1]	Absorption through gastrointestinal tracts (in words) [2]	Solubility in water (in words) [3]
CC1=C(C(=O)OCCN(Cc2ccccc2)c2ccccc2)C(c2cccc([N+](=O)[O-])c2)C(P2(=O)OCC(C)(C)CO2)=C(C)N1 (stereo not drawn) [NZ-105, 5-(5,5-dimethyl-1,3,2-dioxaphosphorinane-2-yl)-1,4-dihydro-2,6-dimethyl-4-(3-nitrophenyl)-3-pyridine carboxylic acid 2-(phenyl(phenylmethyl)amino) ethyl ester P-oxide hydrochlorideethanol]	did not result in an improvement in the solubility of NZ-105 of a degree to promote its bioavailability	–	–
COC(=O)C1=C(C)NC(C)=C(C(=O)OCCN(C)Cc2ccccc2)C1c1cccc([N+](=O)[O-])c1 (stereo not drawn) [Nicardipine]	–	can not be absorbed through gastrointestinal tracts in a sufficient amount	very poor solubility in water
